Publication PMC6100301, “Cytotoxic and N-Acetyltransferase Inhibitory Meroterpenoids from Ganoderma cochlear” (Molecules : A Journal of Synthetic Chemistry and Natural …, 2018)

Assays:
[1] = test system: H1975 human lung cancer cell line; experiment: Cytotoxicity, CCK-8 cell viability assay; format: cell-based; conditions: for Cytotoxic activity against H1975 cells at 40 μM: screening (Figure S46); for IC50: Homo sapiens, NCI-H1975, H1975 cells, CCK-8 assay, 24 h drug treatment
Experimental: (§1) All the isolated meroterpenoids were evaluated for their cytotoxic activity against three human lung cancer cell lines (H1975, PC9, A549). […] Besides, 2 and 5 are also found to be active against H1975 and PC9 cells at 40 μM. With this, the cytotoxic potency of 2 and 5 toward three cancer cell lines were further determined using the CCK-8 assay.
(§2) The human NSCLC cell line (NCL-H1975) was purchased from Shanghai Cell Bank of Chinese Academy of Sciences, (Shanghai, China). PC9 and A549 were obtained from American Type Culture Collection (ATCC, Manassas, VA, USA). Cells were cultured in DMEM (Gibco, Grand Island, NY, USA) with 4.5 g/L glucose and 10% FBS (Gibco, Grand Island, NY, USA). Erlotinib used in the experiments were purchased from Selleck (Selleck Chemicals, Houston, TX, USA). Cytotoxicity was determined using the previously described method. Three human lung cancer cell lines were incubated in 96-well plates (5000 cells/well) respectively to attach overnight and then exposed to drug treatments for additional 24 h. And the CCK solution was added, after 2 h of incubation, the absorbance was measured at a wavelength of 450 nm. Cell viability was measured by a TransDetect® Cell Counting Kit (TransGen Biotech, Beijing, China). The IC50 values were calculated using the GraphPad Prism 5.0 (GraphPad Software, San Diego, CA, USA).

[2] = test system: A549 human lung cancer cell line; experiment: Cytotoxicity, CCK-8 cell viability assay; format: cell-based; conditions: for Cytotoxic activity against A549 cells at 40 μM: screening (Figure S46); for IC50: Homo sapiens, A549 cells, CCK-8 assay, 24 h drug treatment
Experimental: as §1, §2

[3] = test system: PC9 human lung cancer cell line; experiment: Cytotoxicity, CCK-8 cell viability assay; format: cell-based; conditions: for Cytotoxic activity against PC9 cells at 40 μM: screening (Figure S46); for IC50: Homo sapiens, PC-9, PC9 cells, CCK-8 assay, 24 h drug treatment
Experimental: as §1, §2

[4] = molecular target: T1, recombinant NAT2 (Homo sapiens, UniProt P11245); experiment: N-Acetyltransferase (NAT) inhibition, fluorescent probe assay; format: biochemical; conditions: 30 min incubation; for NAT2 inhibition at 10 μM: positive control quercetin 10 μM (Figure 4)
T1 construct: purchased Corning Company, Corning, NY, USA 456282
T1 sequence (P11245 1-290): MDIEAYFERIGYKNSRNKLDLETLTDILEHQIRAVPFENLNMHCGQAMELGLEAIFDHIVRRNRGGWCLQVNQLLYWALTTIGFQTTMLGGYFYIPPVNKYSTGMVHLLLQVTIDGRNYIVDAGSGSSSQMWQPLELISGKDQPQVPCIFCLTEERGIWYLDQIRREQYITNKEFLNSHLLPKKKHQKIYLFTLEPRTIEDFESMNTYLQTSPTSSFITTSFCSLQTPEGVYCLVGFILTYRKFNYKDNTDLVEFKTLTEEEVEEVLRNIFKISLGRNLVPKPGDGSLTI

Row | NAT2 inhibition at 10 μM [4] | IC50 ([4]; 0.5-10 μM, read-out: IC50 toward NAT2) | SMILES | Cytotoxic activity against H1975 cells at 40 μM [1] | IC50 [1] | Cytotoxic activity against A549 cells at 40 μM [2] | IC50 [2] | Cytotoxic activity against PC9 cells at 40 μM [3] | IC50 [3]
1 | – | – | CC(C)=CCC/C(C)=C/CC/C(=C/Cc1cc(O)ccc1O)CO [Compound 5, ganomycin F] | active | 19.5 µM | most active | 21.6 µM | active | 35.7 µM
2 | more potent than quercetin | 5.29 µM | CC(C)=CCCC(C)=CCCC1=C[C@](c2cc(O)ccc2O)(c2oc(-c3cc(O)ccc3O)cc2CCC=C(C)CCC=C(C)C)OC1=O [(+)-1, (+)-gancochlearol C] | – | – | – | – | – | –
3 | – | – | CC(=O)OC/C(=C\Cc1cc(O)ccc1O)CC/C=C(\C)CCC=C(C)C [Compound 2, Gancochlearol D] | active | 32.4 µM | cytotoxic | 30.7 µM | active | 40.6 µM
4 | – | – | C#Cc1cccc(Nc2ncnc3cc(OCCOC)c(OCCOC)cc23)c1 [Erlotinib, reference compound] | – | 7.66 µM | – | 4.59 µM | – | 0.085 µM
5 | could inhibit NAT2 | – | CC(C)=CCCC(C)=CCCC1=C[C@@](c2cc(O)ccc2O)(c2oc(-c3cc(O)ccc3O)cc2CCC=C(C)CCC=C(C)C)OC1=O [(−)-1, (−)-gancochlearol C] | – | – | – | – | – | –
